Here are results for seven compounds from patent publication US10309966B2, “Personalized therapy of inflammation-associated cancer using methods of assessing the susceptibility of a subject to the treatment with EGFR inhibitors/antagonists” (Medizinische Universität Wien, priority 2014, dated 2019).

The test system of data set [1] is IL-6 secretion by isolated Kupffer cells. As to the kind of experiment: IL-1β-induced IL-6 production/secretion by isolated Kupffer cells (ELISA, qRT-PCR). It is filed as cell-based, mouse. The following applies: for IL-1β-induced release of IL-6: EGFR-expressing Kupffer cells, 24 hours after IL-1β, inhibitor pre-incubation, FIG. 10C. As to the method: ELISA for IL-6, IL17A, IL22, IL23 (eBioscience), amphiregulin (R&D Systems), CCL2, IL-1β and IL-1α (BD Biosciences-Pharmigen) were performed following the manufacturer's instructions. MTT assay (EZ4U, Biomedica) was performed to quantify the number of viable Kupffer cells in the wells. The cytokine value was normalized to the number of viable Kupffer cells.
(§1) Hepatocytes were plated onto collagen pre-coated cell culture dishes and cultured in HepatoZyme-SFM (Gibco) supplemented with 2 mM glutamine and 1% penicillin-streptomycin (P/S). Hepatocytes were either treated with the indicated amounts of DEN for 24 hours or with 10 ng/ml TNFα (eBioscience) in the presence of cycloheximide (100 μg/ml, Sigma) for 12 hours to study the hepatoprotective role of EGFR. […] Since the number of Kupffer cells which can be recovered from one mouse is very low, it was technically impossible to perform Western Blot analysis for all indicated signaling molecules on one single batch of Kupffer cells. Usually Kupffer cells from 2 livers of the same genotype were pooled together to obtain around 20-30 μg of protein lysate.

Data set [2] relates to IL-6 release by cultured Kupffer cells. Description: EGF-induced IL-6 release by cultured Kupffer cells (ELISA). It is filed as cell-based, mouse. As to the method:
(§2) Protocols for ELISA have been previously described (Natarajan, A. et al., 2007; Lichtenberger, B. M. et al., 2010; Sibilia, M. et al., 2000; Drobits, B. et al., 2012). ELISA for IL-6, IL17A, IL22, IL23 (eBioscience), amphiregulin (R&D Systems), CCL2, IL-1β and IL-1α (BD Biosciences-Pharmigen) were performed following the manufacturer's instructions. MTT assay (EZ4U, Biomedica) was performed to quantify the number of viable Kupffer cells in the wells. The cytokine value was normalized to the number of viable Kupffer cells.
Hepatocytes and Kupffer cells were isolated after liver perfusion according to previously published protocols (Smedsrod, B. et al., 1985) and either directly used for further analysis or cultured as follows. Hepatocytes were plated onto collagen pre-coated cell culture dishes and cultured in HepatoZyme-SFM (Gibco) supplemented with 2 mM glutamine and 1% penicillin-streptomycin (P/S). Hepatocytes were either treated with the indicated amounts of DEN for 24 hours or with 10 ng/ml TNFα (eBioscience) in the presence of cycloheximide (100 μg/ml, Sigma) for 12 hours to study the hepatoprotective role of EGFR. Kupffer cells were isolated and plated in RPMI 1640 with 10% FCS, 2 mM glutamine, 1% P/S for at least 24 hours followed by overnight starvation (in 0.5% FCS containing medium for cytokine induction; serum-free medium for signaling experiments). Kupffer cells were stimulated with IL-1β (10 ng/ml, eBioscience), EGF (10 ng/ml, Lonza), polylC (20 μg/ml, GE Healthcare), imiquimod (12 μg/ml, Invivogen) and LPS (10 ng/ml, Invivogen) for the time period indicated. […] Since the number of Kupffer cells which can be recovered from one mouse is very low, it was technically impossible to perform Western Blot analysis for all indicated signaling molecules on one single batch of Kupffer cells. Usually Kupffer cells from 2 livers of the same genotype were pooled together to obtain around 20-30 μg of protein lysate.
A general note: ELISA stands for enzyme-linked immunosorbent assay.

Data set [3] relates to AR release by cultured Kupffer cells. As to the kind of experiment: AR (amphiregulin) release into supernatant of IL-1β stimulated Kupffer cells (ELISA). The class given is cell-based, mouse. Conditions: 24 hours after IL-1β stimulation in presence of inhibitor; FIG. 10B. The procedure: as §2
Hepatocytes and Kupffer cells were isolated after liver perfusion according to previously published protocols (Smedsrod, B. et al., 1985) and either directly used for further analysis or cultured as follows. Hepatocytes were plated onto collagen pre-coated cell culture dishes and cultured in HepatoZyme-SFM (Gibco) supplemented with 2 mM glutamine and 1% penicillin-streptomycin (P/S). Hepatocytes were either treated with the indicated amounts of DEN for 24 hours or with 10 ng/ml TNFα (eBioscience) in the presence of cycloheximide (100 μg/ml, Sigma) for 12 hours to study the hepatoprotective role of EGFR. Kupffer cells were isolated and plated in RPMI 1640 with 10% FCS, 2 mM glutamine, 1% P/S for at least 24 hours followed by overnight starvation (in 0.5% FCS containing medium for cytokine induction; serum-free medium for signaling experiments). […]

For data set [4], the system named is human HCC cells. Conditions: xenograft models with human HCC cells; W. Sieghart, unpublished results; cited from earlier work. (In general: A xenograft is tissue or cells of one species grown in another, often human tumour cells in immunodeficient mice.)
Data set [5] concerns advanced stage HCC patients. The following applies: cited from earlier work.
For data set [6], the system named is patients with advanced non-small-cell lung cancer. The following applies: meta-analysis; cited from earlier work.
For data set [7], the system named is ulcerative colitis patients. The following applies: EGF enemas; cited from earlier work.
Data set [8] concerns EGFR. Description: EGFR phosphorylation in isolated Kupffer cells (Western blot). It is filed as cell-based, mouse. Conditions: EGFR expressing Kupffer cells; IL-1β as stimulus; FIGS. 10E, 10F. The procedure: as §1
In general terms: A western blot detects proteins with antibodies after separation by electrophoresis.

Data set [9] relates to DSS colitis in Adam17^ex/ex mice. Conditions: exogenous supplementation; cited from earlier work.

With `C[S+]([O-])c1ccc(-c2nc(-c3ccncc3)c(-c3ccc(F)cc3)[nH]2)cc1` (centres unmarked) [SB203580, reference compound], the “IL-1β-induced release of IL-6” value in data set [1] is “inhibited”. In addition, in data set [2] (EGFR-positive liver macrophages, 24 hours after EGF, inhibitor pre-incubation, FIG. 10D), the “EGF-induced IL-6 production” value is “inhibited”.

Take `CC(C)C[C@H](CC(=O)NO)C(=O)N[C@@H](Cc1ccc2ccccc2c1)C(=O)N[C@@H](C)C(=O)NCCN` [TAPI-1, reference compound]: the “IL-1β-induced release of IL-6” value in [1] was “blocked”. Further, the “AR release into the culture medium” value in [3] is “did not occur”.

In the case of `C#Cc1cccc(Nc2ncnc3cc(OCCOC)c(OCCOC)cc23)c1` [erlotinib], in [4], the “reduction of HCC burden” value is “ineffective” and the “synergistic effect of combination therapy with sorafenib” value is “did not show any synergistic effect”. Moreover, in [5] (HCC, phase 2), the “effects in phase 2 trials (disease stabilization at 6 months)” value is given as “moderate effects”. The “improvement in survival through addition of erlotinib” value in data set [5] (SEARCH trial, phase III, advanced stage HCC-patients) was “unable to show any improvement in survival”. Besides, in [6], the “drug toxicity (diarrhea)” value is given as “increased drug toxicity in the form of diarrhea”.

In the case of `COc1cc2ncnc(Nc3ccc(F)c(Cl)c3)c2cc1OCCCN1CCOCC1` [gefitinib], in data set [5] (advanced stage HCC), the “clinical results in advanced stage HCC patients” value is on record as “disappointing clinical results”. Moreover, the “drug toxicity (diarrhea)” value in [6] was “increased drug toxicity in the form of diarrhea”.

As for “EGF: EGFR ligand epidermal growth factor (NSDSECPLSHDGYCLHDGVCMYIEALDKYACNCVVGYIGERCQYRDLKWWELR; UniProt P01133 971-1023, looked up)”, in data set [2] (EGF as stimulus, FIG. 10D), the “restoration of IL-6 production in MyD88−/− Kupffer cells” value is recorded as “fully restore”. For the same compound, in data set [2] (EGFR expressing Kupffer cells, EGF as stimulus, FIGS. 10C, 10D), the “induction of IL-6 release” value is “sufficient and equally as potent as IL-1β”. The disease remission result in data set [7] is given as “induced disease remission”.

Regarding “IL-1β: cytokine used to stimulate Kupffer cells”, the “induction of IL-6 transcripts and IL-6 protein in the culture medium” value in data set [1] (Kupffer cells expressing EGFR, IL-1β as stimulus, FIGS. 8E, 8F) is listed as “induced”. Moreover, the “induction of EGFR phosphorylation” value in data set [8] is given as “able to induce”.

Regarding “TGFα: EGFR ligand transforming growth factor alpha, exogenous supplementation”, in data set [9], the “rescue of colitis symptoms” value was “partial rescue”.
